Patent publication US20260125375A1 (Pfizer Inc., priority 2022, published 2026)

Legend:
CBL-B (residues 36-427) = molecular target: T1, CBL-B (residues 36-427) (Homo sapiens, UniProt Q13191); assay: Ligand Displacement Assay (LDA), HTRF competitive binding against BODIPY-labeled fluorescent tracer, CBL-B; conditions: geometric mean of the number of tests, read-out: CBL-B Ki (nM) GMean
T1 construct: Purified CBL-B (residues 36-427) and C-CBL (residues 46-435) proteins from baculovirus-infected insect cells; made in house; host or cells: baculovirus-infected insect cells
Source text: (§1) Ligand Displacement Assay (LDA)
(§2) The purpose of the homogeneous time-resolved fluorescence energy transfer (HTRF) ligand displacement assay is to determine whether the compounds of the disclosure are competitive with a BODIPY-labeled compound; “fluorescent tracer” aka [6-cyclopropyl-5-(17-{5-[(3,5-dimethyl-2H-pyrrol-2-ylidene-KN)methyl]-1H-pyrrol-2-yl-κN}-15-oxo-5,8,11-trioxa-2,14-diazaheptadecan-1-yl)-N-(3-{3-[(4-methyl-4H-1,2,4-triazol-3-yl)methyl]oxetan-3-yl}phenyl)pyridine-2-carboxamidato](difluorido)boron and to assess CBL-B binding selectivity over C-CBL. The synthesis of this fluorescent tracer compound is described below.
(§3) Purified CBL-B (residues 36-427) and C-CBL (residues 46-435) proteins from baculovirus-infected insect cells were biotin labeled on their amino-terminal AviTag™ epitopes by the E. coli biotin ligase BirA to bind terbium-labeled streptavidin (SA-Tb). After optimizing the assays and determining KD values for the fluorescent tracer to CBL-B and C-CBL, compounds were tested using three-fold serial dilutions in duplicate from a top concentration of […] with a final DMSO concentration of 2%. […] The Ki (nM) values reported are the geometric means (GMean) of the number of tests conducted.

C-CBL (residues 46-435) = molecular target: T2, C-CBL (residues 46-435) (Homo sapiens, UniProt P22681); assay: Ligand Displacement Assay (LDA), HTRF competitive binding against BODIPY-labeled fluorescent tracer, C-CBL; conditions: geometric mean of the number of tests, read-out: C-CBL Ki (nM) GMean
T2 construct: Purified CBL-B (residues 36-427) and C-CBL (residues 46-435) proteins from baculovirus-infected insect cells; made in house; host or cells: baculovirus-infected insect cells
T2 sequence (P22681 46-435): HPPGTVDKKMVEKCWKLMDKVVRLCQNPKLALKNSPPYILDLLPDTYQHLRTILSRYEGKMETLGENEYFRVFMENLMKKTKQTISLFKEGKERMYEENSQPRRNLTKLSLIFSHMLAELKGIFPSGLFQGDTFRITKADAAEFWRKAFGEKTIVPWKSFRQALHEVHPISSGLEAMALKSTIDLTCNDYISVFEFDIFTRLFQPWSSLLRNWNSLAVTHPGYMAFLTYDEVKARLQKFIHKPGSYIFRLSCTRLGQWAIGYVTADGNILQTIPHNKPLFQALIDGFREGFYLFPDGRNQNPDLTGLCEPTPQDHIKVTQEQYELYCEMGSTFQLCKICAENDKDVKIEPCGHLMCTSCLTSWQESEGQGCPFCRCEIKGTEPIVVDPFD
Source text: as §1, §2, §3

WT CBL-B (36-427) = molecular target: T3, WT CBL-B (36-427) (Homo sapiens, UniProt Q13191); assay: Surface Plasmon Resonance (SPR) assay, binding affinity and kinetics, CBL-B; conditions: SPR at 10° C., biotinylated WT CBL-B (36-427) on streptavidin chip; geometric mean; read-out: CBL-B SPR Kd (nM) GMean
T3 construct: N-terminal biotinylated WT CBL-B (36-427) and C-CBL (46-435) were captured on a streptavidin (SA) coated sensor chip
Method: (§4) Surface Plasmon Resonance (SPR) Assay
(§5) The purpose of the SPR assay is to evaluate the binding affinity and kinetics of the compound of disclosure binding to CBL-B and C-CBL.
(§6) The binding affinity and kinetics of compound binding to CBL-B and C-CBL were measured by Surface Plasmon Resonance (SPR) using either Biacore S200, 8K or 8K+ (Cytiva, Marlborough, MA) instruments. N-terminal biotinylated WT CBL-B (36-427) and C-CBL (46-435) were captured on a streptavidin (SA) coated sensor chip to achieve approximately 5000 to 6000 RUs of surface density. Un-functionalized SA surfaces with no immobilized protein served as reference for binding kinetic analysis. All the samples were prepared in buffer consisting of 10 mM HEPES, 150 mM NaCl, 0.05% Tween-20, 5% glycerol, […], 2% DMSO, pH 7.2. The same buffer was used as the running buffer during the experiments. Compound binding kinetics were measured in either multi-cycle or single-cycle kinetic format.
(§7) Multi-cycle kinetic analysis (MCK): A two-fold, 10-point serial dilution of test compounds was set-up in a 96-well microplate (Greiner; Cat #650101) with a top concentration of either 10 μM or 100 μM. Binding kinetics was measured at 10° C. by injecting serial dilution of compounds onto both reference and CBL immobilized channels at a flow rate of 100 μL/min and association time of 90 seconds. Compound dissociation was monitored for >400 seconds during each cycle. No additional regeneration was used. DMSO calibration curve was obtained before and after compound analysis by injecting 0-4% of DMSO in assay buffer. A suitable compound with known affinity and kinetics was tested once in every experiment as a positive control to assess activity of the captured proteins on the surface.
(§8) Single-cycle kinetic analysis (SCK): A 3-fold, 6-point serial dilution of compounds was set-up in a deep 96-well microplate (Greiner Bio; Cat #780201) with the highest concentration of 1 μM (concentration range: […]). Binding kinetics was measured at 10° C. by injecting serial dilutions of compounds in increasing order onto reference as well as CBL immobilized channels at a flow rate of 100 μL/min and association time of 120 seconds. Compound dissociation was monitored for >5400 seconds. Two buffer blanks were also run in a single-cycle kinetics format before the compound run for double referencing. No additional regeneration was used. DMSO calibration curve was obtained before and after compound analysis by injecting 0-4% of DMSO in the assay buffer. A suitable compound with known affinity and kinetics was tested once in every experiment as a positive control to assess activity of the captured proteins on the surface.

C-CBL (46-435) = molecular target: T4, C-CBL (46-435) (Homo sapiens, UniProt P22681); assay: Surface Plasmon Resonance (SPR) assay, binding affinity and kinetics, C-CBL; conditions: SPR at 10° C., biotinylated C-CBL (46-435) on streptavidin chip; geometric mean; read-out: C-CBL SPR Kd (nM) GMean
T4 construct: N-terminal biotinylated WT CBL-B (36-427) and C-CBL (46-435) were captured on a streptavidin (SA) coated sensor chip
T4 sequence (P22681 46-435): T2 sequence (P22681 46-435)
Method: as §4, §5, §6, §7, §8

## Cn1cnnc1CC1(c2cccc(-c3n[nH]c4cnc(Cl)cc34)c2)COC1 [Example B8, 5-chloro-3-(3-{3-[(4-methyl-4H-1,2,4-triazol-3-yl)methyl]oxetan-3-yl}phenyl)-1H-pyrazolo[3,4-c]pyridine]
CBL-B (residues 36-427)
  Ki: 28.6 nM
C-CBL (residues 46-435)
  Ki: 142 nM
WT CBL-B (36-427)
  Kd: 15.9 nM
C-CBL (46-435)
  Kd: 180 nM

## Cn1cnnc1CC1(c2cccc(-c3n[nH]c4c(CN5CC(F)(F)C5)nc(C(F)(F)F)cc34)c2)COC1 [Example C69, 7-[(3,3-difluoroazetidin-1-yl)methyl]-3-(3-{3-[(4-methyl-4H-1,2,4-triazol-3-yl)methyl]oxetan-3-yl}phenyl)-5-(trifluoromethyl)-1H-pyrazolo[3,4-c]pyridine]
CBL-B (residues 36-427)
  Ki: 34.5 nM
C-CBL (residues 46-435)
  Ki: 185 nM
WT CBL-B (36-427)
  Kd: 30.2 nM
C-CBL (46-435)
  Kd: 208 nM

## C[C@H](c1nc(C(F)(F)F)cc2c(-c3cccc(C4(Cc5nncn5C)COC4)c3)n[nH]c12)N1CCNC(=O)C1 (single isomer, unassigned) [Example D52]
CBL-B (residues 36-427)
  Ki: 31.9 nM
C-CBL (residues 46-435)
  Ki: 118 nM
WT CBL-B (36-427)
  Kd: 10.1 nM
C-CBL (46-435)
  Kd: 79.1 nM

## Cn1cnnc1CC1(c2cccc(-c3n[nH]c4c(CN[C@@H]5CCOC5)nc(C(F)(F)F)cc34)c2)COC1 [Example C59]
CBL-B (residues 36-427)
  Ki: 45.2 nM
C-CBL (residues 46-435)
  Ki: 171 nM
WT CBL-B (36-427)
  Kd: 16.8 nM
C-CBL (46-435)
  Kd: 230 nM

## C[C@@H]1CCCN(Cc2nc(C(F)(F)F)cc3c(-c4cccc([C@H](c5nncn5C)C5CCC5)c4)n[nH]c23)C1 [Example C108, 3-{3-[(R)-cyclobutyl(4-methyl-4H-1,2,4-triazol-3-yl)methyl]phenyl}-7-{[(3R)-3-methylpiperidin-1-yl]methyl}-5-(trifluoromethyl)-1H-pyrazolo[3,4-c]pyridine]
CBL-B (residues 36-427)
  Ki: 79.4 nM
C-CBL (residues 46-435)
  Ki: 630 nM
WT CBL-B (36-427)
  Kd: 5.5 nM
C-CBL (46-435)
  Kd: 148 nM

## Cn1cnnc1CC1(c2cccc(-c3n[nH]c4c(CN5CC[C@@H](F)C5)nc(C(F)(F)F)cc34)c2)COC1 [Example C71, 7-{[(3R)-3-fluoropyrrolidin-1-yl]methyl}-3-(3-{3-[(4-methyl-4H-1,2,4-triazol-3-yl)methyl]oxetan-3-yl}phenyl)-5-(trifluoromethyl)-1H-pyrazolo[3,4-c]pyridine]
CBL-B (residues 36-427)
  Ki: 25.5 nM
C-CBL (residues 46-435)
  Ki: 124 nM
WT CBL-B (36-427)
  Kd: 10.8 nM
C-CBL (46-435)
  Kd: 108 nM

## Cn1cnnc1CC1(c2cccc(-c3n[nH]c4c(CN5CC[C@H](F)C5)nc(C(F)(F)F)cc34)c2)COC1 [Example C73, 7-{[(3S)-3-fluoropyrrolidin-1-yl]methyl}-3-(3-{3-[(4-methyl-4H-1,2,4-triazol-3-yl)methyl]oxetan-3-yl}phenyl)-5-(trifluoromethyl)-1H-pyrazolo[3,4-c]pyridine]
CBL-B (residues 36-427)
  Ki: 19.3 nM
C-CBL (residues 46-435)
  Ki: 111 nM
WT CBL-B (36-427)
  Kd: 9 nM
C-CBL (46-435)
  Kd: 94 nM

## Cn1cnnc1[C@@H](c1cccc(-c2n[nH]c3c(CN[C@H]4CC[C@H](O)C4)nc(C(F)(F)F)cc23)c1)C1CCC1 [Example D86]
CBL-B (residues 36-427)
  Ki: 16.1 nM
C-CBL (residues 46-435)
  Ki: 106 nM
WT CBL-B (36-427)
  Kd: 6.4 nM
C-CBL (46-435)
  Kd: 161 nM

## Cn1cnnc1CC1(c2cccc(-c3n[nH]c4c(CN5C[C@@H](F)[C@H](F)C5)nc(C(F)(F)F)cc34)c2)COC1 [Example C66, 7-{[(3R,4R)-3,4-difluoropyrrolidin-1-yl]methyl}-3-(3-{3-[(4-methyl-4H-1,2,4-triazol-3-yl)methyl]oxetan-3-yl}phenyl)-5-(trifluoromethyl)-1H-pyrazolo[3,4-c]pyridine]
CBL-B (residues 36-427)
  Ki: 20 nM
C-CBL (residues 46-435)
  Ki: 112 nM
WT CBL-B (36-427)
  Kd: 9.6 nM
C-CBL (46-435)
  Kd: 97 nM

## CC(C)NC(C)c1nc(C(F)(F)F)cc2c(-c3cccc(C4(Cc5nncn5C)COC4)c3)n[nH]c12 (single isomer, unassigned) [Example C80, N-{(1ξ)-1-[3-(3-{3-[(4-methyl-4H-1,2,4-triazol-3-yl)methyl]oxetan-3-yl}phenyl)-5-(trifluoromethyl)-1H-pyrazolo[3,4-c]pyridin-7-yl]ethyl}propan-2-amine]
CBL-B (residues 36-427)
  Ki: 10.1 nM
C-CBL (residues 46-435)
  Ki: 71.5 nM
WT CBL-B (36-427)
  Kd: 1.7 nM
C-CBL (46-435)
  Kd: 68.5 nM

## Cn1cnnc1[C@@H](c1cccc(-c2n[nH]c3c(CN[C@@H]4CC[C@@H](O)C4)nc(C(F)(F)F)cc23)c1)C1CCC1 [Example D35]
CBL-B (residues 36-427)
  Ki: 12.9 nM
C-CBL (residues 46-435)
  Ki: 100 nM
WT CBL-B (36-427)
  Kd: 4.4 nM
C-CBL (46-435)
  Kd: 152 nM

## C[C@@H](CO)c1nc(C(F)(F)F)cc2c(-c3cccc([C@H](c4nncn4C)C4CCC4)c3)n[nH]c12 (single isomer, unassigned) [Example K4, (2ξ)-2-[3-{3-[(ξ)-cyclobutyl(4-methyl-4H-1,2,4-triazol-3-yl)methyl]phenyl}-5-(trifluoromethyl)-1H-pyrazolo[3,4-c]pyridin-7-yl]propan-1-ol]
CBL-B (residues 36-427)
  Ki: 17.6 nM
C-CBL (residues 46-435)
  Ki: 156 nM
WT CBL-B (36-427)
  Kd: 8.3 nM
C-CBL (46-435)
  Kd: 207 nM

## Cn1cnnc1[C@@H](c1cccc(-c2n[nH]c3c(CN4C[C@@H](O)[C@H](O)C4)nc(C(F)(F)F)cc23)c1)C1CCC1 [Example C74, (3R,4R)-1-{[3-{3-[(R)-cyclobutyl(4-methyl-4H-1,2,4-triazol-3-yl)methyl]phenyl}-5-(trifluoromethyl)-1H-pyrazolo[3,4-c]pyridin-7-yl]methyl}pyrrolidine-3,4-diol]
CBL-B (residues 36-427)
  Ki: 7.5 nM
C-CBL (residues 46-435)
  Ki: 83.1 nM
WT CBL-B (36-427)
  Kd: 3.2 nM
C-CBL (46-435)
  Kd: 103 nM

## C[C@H](c1nc(C(F)(F)F)cc2c(-c3cccc(C4(Cc5nncn5C)COC4)c3)n[nH]c12)N1CCNCC1 (single isomer, unassigned) [Example D54]
CBL-B (residues 36-427)
  Ki: 20.9 nM
C-CBL (residues 46-435)
  Ki: 80 nM
WT CBL-B (36-427)
  Kd: 8.2 nM
C-CBL (46-435)
  Kd: 61.7 nM

## C[C@H](c1nc(C(F)(F)F)cc2c(-c3cccc(C4(Cc5nncn5C)COC4)c3)n[nH]c12)N1CCC1 (single isomer, unassigned) [Example D42]
CBL-B (residues 36-427)
  Ki: 35.3 nM
C-CBL (residues 46-435)
  Ki: 163 nM
WT CBL-B (36-427)
  Kd: 9.4 nM
C-CBL (46-435)
  Kd: 59.8 nM

## C[C@@H](N[C@H]1COC[C@H]1O)c1nc(C(F)(F)F)cc2c(-c3cccc([C@H](c4nncn4C)C4CCC4)c3)n[nH]c12 (single isomer, unassigned) [Example D58]
CBL-B (residues 36-427)
  Ki: 14.3 nM
C-CBL (residues 46-435)
  Ki: 173 nM

## Cn1cnnc1[C@@H](c1cccc(-c2n[nH]c3ncc(Cl)cc23)c1)C1CCC1 [Example A4, 5-chloro-3-{3-[(R)-cyclobutyl(4-methyl-4H-1,2,4-triazol-3-yl)methyl]phenyl}-1H-pyrazolo[3,4-b]pyridine]
CBL-B (residues 36-427)
  Ki: 17.9 nM
C-CBL (residues 46-435)
  Ki: 279 nM
